Read-outs that look alike come from different tables or passages of the source.

In data set [1] the test system is captopril-treated saline-drinking SHRSP. As to the kind of experiment: Angiotensin II-induced renal damage in captopril-treated saline-drinking SHRSP, Protocol 2 (Example A-8). It is filed as in vivo, rat (SHRSP/A3N). How it is done: Animals. Studies were conducted in accordance with institutional guidelines using male SHRSP/A3N (generations F-75 to F-78), n=37, from our local colony. These animals were bred from NIH stock, derived from the SHRSP/A3N substrain described originally by Okamoto and coworkers (Okamoto K et al. Circ. Res. 34 and 35 (suppl I):I-143-I-153.). All animals were housed in a room maintained on a 12:12-h light:dark-cycle and an ambient temperature of 22±1° C. in the Animal Care Facility at New York Medical College. Rats were weaned at 4 weeks of age and allowed free access to Purina Lab Chow 5001 (Ralston Purina, St. Louis, Mo.) and tap water until the initiation of experimental protocols.
SHRSP were placed on Stroke-Prone Rodent Diet (#39-288, Zeigler Bros Inc., Gardners, Pa.) and 1% NaCl drinking solution ad libitum starting at 8.3 weeks of age. […] Animals were handled and weighed daily. Urine samples were collected for the assessment of proteinuria. Systolic blood pressure and heart rate were measured each week. After 2 weeks of treatment, animals were decapitated, trunk blood was collected into chilled EDTA tubes, and the kidneys were removed, blotted dry, and immediately weighed. Coronal sections of kidney were fixed and later processed for light microscopic evaluation.
Assays and Analyses. Systolic blood pressure and heart rate of awake animals were measured by tail-cuff plethysmography using a Natsume KN-210 manometer and tachometer (Peninsula Laboratories Inc., Belmont, Calif.). Rats were warmed at 37° C. for 10 min and allowed to rest quietly in a Lucite chamber before measurement of blood pressure. Measurements of urine volume were made gravimetrically. Urinary protein concentration was determined by the sulfosalicylic acid turbidity method. Plasma aldosterone was measured by radioimmunoassay using ^125I-aldosterone as a tracer (Coat-a Count Aldosterone, Diagnostic Products Co., Los Angeles, Calif.).
Histology. Kidneys were preserved in 10% phosphate-buffered formalin. Coronal sections (2-3 μm) were stained with hematoxylin and eosin and examined by light microscopy in a blinded fashion as previously described (Stier C T et al. J Pharmacol Exp Ther (1992) 260:1410-1415). Glomerular damage was categorized as ischemic or thrombotic. Ischemic lesions were defined as retraction of glomerular capillary tufts with or without appreciable mesangiolysis. Glomerular thrombotic lesions were defined as any one of a combination of the following: segmental to global fibrinoid necrosis, focal thrombosis of glomerular capillaries, swelling and proliferation of intracapillary (endothelial and mesangial) and/or extracapillary cells (crescents), and expansion of reticulated mesangial matrix with or without significant hypercellularity. […] Vascular thrombotic lesions were defined as any one or a combination of the following: mural fibrinoid necrosis, extravasation and fragmentation of red blood cells, and luminal and/or mural thrombosis. Proliferative arteriopathy was characterized by proliferation of markedly swollen myointimal cells with swollen round to ovoid vesicular nuclei surrounded by mucinous extracellular matrix (“onion skinning”) often resulting in nodular thickening. Vascular damage was expressed as the number of arteries and arterioles with lesions per 100 glomeruli. The presence of casts and tubular (ischemic) retraction and simplification was assessed semiquantitatively.
Statistical Analysis. Significant effects with respect to treatment and time were determined by two-way analysis of variance. Data with only one grouping variable were analyzed statistically by Student's unpaired t tests. When more than two groups were compared, one-way analysis of variance was performed followed by the post-hoc Newman-Keul's multiple comparison test. Data were analyzed using version 2.01 of the GraphPad Prism statistical software package (GraphPad Software Inc., San Diego, Calif.). P<0.05 was considered statistically significant.

For data set [2], the system named is diabetic type 2 patients with hypertension and microalbuminuria. As to the kind of experiment: Eplerenone, enalapril and combination in diabetic hypertensives with microalbuminuria, 24 weeks (Examples A-18, D-7). The class given is in vivo, human.
In data set [3] the test system is patients with mild-to-moderate hypertension. Description: Eplerenone versus enalapril in essential hypertension, 12-month titration-to-effect (Example D-3). It is filed as in vivo, human. As for the experimental part: The study design is illustrated in FIG. D-6. Patients with mild-to-moderate hypertension (diastolic blood pressure [DBP]≧95 mmHg and <110 mmHg) were randomized to receive initially EPL 50 mg QD (n=253) or ENAL 10 mg QD (n=246). If DBP ≧90 mmHg at Weeks 4, 8, 12, 16, or 20, the dose of study medication was up-titrated incrementally to EPL 100 mg and 200 mg QD, or ENAL 20 mg and 40 mg QD. […] At 24 wks and 12 months, changes in BP, RAAS hormone profile, urinary albumin excretion (urinary albumin: creatinine ratio [UACR]), laboratory tests, safety, and adverse events (AEs) were assessed.

The test system of data set [4] is patients with hypertension and left ventricular hypertrophy. Description: Eplerenone, enalapril and combination in left ventricular hypertrophy, 9 months (Examples A-15, D-4). It is filed as in vivo, human. The source says:
Table […] illustrates forth the above-described dosing scheme. […] Additional laboratory assessments of blood for clinical safety will be done monthly. Routine urinalysis will be done every three months. […] A blood sample for genotyping will be collected at Week 0. At screening and at Month 9, a 12-lead ECG and physical examination will be done. […] In case of early termination, an MRI and blood sample for TSH will be done for those patients who have received double-blind treatment for at least three months. At Weeks 0, 12 and Months 6 and 9, pharmacoeconomic data will be collected on all patients. The primary measure of efficacy is the change from baseline in LVM, as assessed by MRI, in the eplerenone group versus the enalapril group. […] Secondary measures of efficacy will be the following: […] (3) aortic compliance and ventricular filling parameters; and (4) special studies (PIIINP, microalbuminuria, PAI, and tPA). Additionally, the long-term safety and tolerability of the three treatment groups will be compared. […] The study design is illustrated in FIG. D-10. […] Left ventricular mass (LVM) (assayed by MRI), BP, collagen turnover, and tolerability were assessed at the 9-month endpoint.

The test system of data set [5] is patients with mild to moderate hypertension. As to the kind of experiment: Eplerenone/HCTZ dose ranging factorial design study (Example D-2). It is filed as in vivo, human. The settings on record: eplerenone 25, 50 or 200 mg daily; HCTZ 12.5 or 25 mg daily; 8 weeks. As for the experimental part:
Patients were assessed at weeks 0, 2, 4, and 8. Study assessments at protocol-specified timepoints included blood pressure (BP), heart rate, clinical laboratory analyses, vital signs, physical examinations, 12-lead ECG, and monitoring of adverse events. A total of 614 patients were randomized.

In data set [6] the test system is patients with low-renin hypertension. Description: Eplerenone versus losartan in low-renin hypertension, 16 weeks (Examples A-16, D-5). It is filed as in vivo, human. The source says: Patients will continue on therapy until Week 16. Table […] illustrates the above-described dosing scheme. […] Plasma renin will be determined at screening; serum aldosterone, plasma renin, and plasma cortisol will be determined at Weeks 0, 8, and 16. […] A 12-lead electrocardiogram will be done at Weeks 0 and 16. Physical examinations will be completed at screening and at Week 16. […] Secondary measures of efficacy will be the following: […] Study design is illustrated in FIG. D-16. […] At Weeks 8 and 16, BP, RAAS hormone profile, and safety were assessed.

The subject of data set [7] is black and white patients with mild-to-moderate hypertension. The settings on record: for Active Renin (% change) / ΔDBP / ΔSBP: baseline to Week 16.
[8] abbreviates: captopril 50 mg/kg/d, angiotensin II 25 ng/min, eplerenone 100 mg/kg/d, 2 weeks.
[9] abbreviates: Week 24, EPL 50-200 mg QD, ENAL 10-40 mg QD titrated.
[10] abbreviates: 9-month endpoint, forced titration.
Where [11] appears, read: 9-month endpoint, EPL 200 mg, ENAL 40 mg, EPL 200 mg/ENAL 10 mg.
[12] abbreviates: Week 8 (monotherapy), EPL 100-200 mg QD, LOS 50-100 mg QD.
Setting [13] is: Week 16, after allowed addition of HCTZ.

Turning to `C[C@H](CS)C(=O)N1CCC[C@H]1C(=O)O` [Captopril], in data set [1] (setting [8]), the “Glomerular damage, Total” value is recorded as 0 ± 0 lesions/100 glomeruli; the “Renal arteriopathy, Proliferative” value was 0 ± 0 lesions/100 glomeruli; the “Renal arteriopathy, Thrombotic” value was 0 ± 0 lesions/100 glomeruli; the “Renal arteriopathy, Total” value came out at 0 ± 0 lesions/100 glomeruli. Moreover, in data set [1] (setting [8]), the plasma aldosterone concentration was 107 ± 26 pg/mL; the “tubules with ischemic retraction and simplification” value is reported as “absent”.

As for `CCOC(=O)[C@H](CCc1ccccc1)N[C@@H](C)C(=O)N1CCC[C@H]1C(=O)O` [Enalapril, reference compound], in data set [2] (24 weeks), the “patients withdrawn for hyperkalemia” value came out at 2 patients and the “subjects with elevated K+ (≧6.0 mEq/L)” value turned out to be 2 subjects. For the same molecule, the “patients requiring addition of hydrochlorothiazide (HCTZ)” value in data set [2] (EPL 200 mg QD, ENAL 40 mg QD, EPL 200 mg/ENAL 10 mg, 24 weeks) is on record as 43/81. In addition, in data set [2] (Week 8), the “Adjusted mean change ΔDBP (Week 8-baseline)” value is reported as −11.6 and the “Adjusted mean change ΔSBP (Week 8-baseline)” value is on record as −15.4. In addition, in data set [2] (Week 24), the “Adjusted mean change ΔDBP (Week 24-baseline)” value was −15.0 and the “Adjusted mean change ΔSBP (Week 24-baseline)” value is recorded as −20.4. The tolerability entry in data set [2] (in vivo) is reported as “well tolerated”. In data set [3] (12-month study), the patients experiencing coughing worked out at 6.5%, the patients experiencing hyperglycemia is 2.8% and the “patients experiencing urinary tract infections (UTI)” value turned out to be 2.8%. Also, in data set [3] (12 months), the DBP change is −14.1 mmHg and the SBP change is given as −14.8 mmHg. Further, in data set [3] (setting [9]), the DBP change was −11.3 mmHg and the SBP change is on record as −12.7 mmHg. Also, in data set [3] (Week 24, patients with baseline UACR ≧30 mg/g), the “reduction in UACR” value was −25.7%. Also, the safety and tolerability entry in data set [3] (in vivo) is “safe and well tolerated”. For the same molecule, in data set [4] (setting [10]), the “DBP Adjusted mean change” value was −13.0 mmHg and the “SBP Adjusted mean change” value is −22.5 mmHg. In addition, in data set [4] (setting [11]), the “decrease from baseline in UACR” value is given as −39.1% and the “decrease from baseline in collagen turnover” value is listed as −7.3%. In addition, the patients experiencing coughing in data set [4] (9-month study) amounted to 14.1%. For the same molecule, the “LVM Adjusted mean change [g (SE)]” value in data set [4] (left ventricular mass by MRI, 9-month endpoint, forced titration (EPL 50-200 mg, ENAL 10-40 mg)) is reported as −19.7 (3.20) g.

With `NS(=O)(=O)c1cc2c(cc1Cl)NCNS2(=O)=O` [HCTZ, reference compound], in data set [5], the “DBP, change from Baseline to the Final Visit” value is “dose-dependent decreases in DBP” and the “SBP, change from Baseline to the Final Visit” value was “dose-dependent decreases in SBP”.

In the case of `CCCCc1nc(Cl)c(CO)n1Cc1ccc(-c2ccccc2-c2nn[nH]n2)cc1` [Losartan, reference compound], in data set [6] (16 weeks), the “cumulative percentage of patients requiring HCTZ add-on therapy” value amounted to 55.6%. Also, the “increase in active renin levels” value in data set [6] (Week 8) is recorded as “+63.8%”; in data set [6] (Week 16), “+83.3%”. The results for the “increase in serum aldosterone levels” value in data set [6] (Week 8) and in data set [6] (Week 16) were −18.7% and −5.5%, respectively. Besides, the entries for the “mean change from baseline in DBP” value in data set [6] (setting [12]) and in data set [6] (setting [13]) were −6.7 mmHg and −9.8 mmHg, respectively. The “mean change from baseline in SBP” value in data set [6] (setting [12]) is listed as −10.1 mmHg; in data set [6] (setting [13]), −15.0 mmHg. The “Active Renin (% change)” value in data set [7] (All Patients) was “+67.1%”; in data set [7] (Black Patients), “+40.0%”; in data set [7] (White Patients) it was “+113.7%”. The figures for the ΔDBP in data set [7] (All Patients), in data set [7] (Black Patients) and in data set [7] (White Patients) were −6.9 mmHg, −6.0 mmHg and −8.4 mmHg, respectively. Further, the values for the ΔSBP in data set [7] (All Patients) and in data set [7] (Black Patients) were −6.3 mmHg and −5.3 mmHg, respectively. Moreover, in data set [7] (Week 16, EPL 50-200 mg QD, LOS 50-100 mg QD), the “adjusted mean percent change from baseline in UACR” value is −18.2%. For the same molecule, the safety and tolerability result in data set [7] (human, in vivo) is “safe and well-tolerated”.

On to “Angiotensin II: Angiotensin II (human type) infused by osmotic minipump (DRVYIHPF; Angiotensin-2; UniProt P01019 25-32, looked up)”, for which, in data set [1] (setting [8]), the “Glomerular damage, Ischemic” value is listed as 13 ± 3 lesions/100 glomeruli; the “Glomerular damage, Thrombotic” value is given as 2 ± 1 lesions/100 glomeruli; the “Glomerular damage, Total” value is listed as 15 ± 3 lesions/100 glomeruli; the “Renal arteriopathy, Proliferative” value was 1 ± 1 lesions/100 glomeruli. In data set [1] (setting [8]), the “Renal arteriopathy, Thrombotic” value came out at 15 lesions/100 glomeruli; the “Renal arteriopathy, Total” value was found to be 16 ± 2 lesions/100 glomeruli; the plasma aldosterone concentration turned out to be 404 ± 160 pg/mL. Besides, the renal damage in data set [1] (captopril + angiotensin II 25 ng/min, with eplerenone 100 mg/kg/d or vehicle) is on record as 18±4%. Besides, the “proteinuria (urinary protein excretion)” value in data set [1] (end of study (2 weeks), captopril 50 mg/kg/d, angiotensin II 25 ng/min s.c., eplerenone 100 mg/kg/d by gavage) worked out at 96 ± 13 mg/day.

The values are drawn from patent publication US20070191324A1, “Methods for treatment or prophylaxis of aldosterone-mediated pathogenic effects in a subject using an epoxy-steroidal aldosterone antagonist” (priority 1999, published 2007).
